Measured values published in PubChem BioAssay (NCI).
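Five concentrations, 48 hours, 96-well plates. Definition used: TGI = concentration required for complete inhibition of growth.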

Tests used:
Experiment in all cases: NCI anticancer screen, dose series, 48 h
KM12 colon = test system: KM12 colon
LOX IMVI melanoma = test system: LOX IMVI melanoma
SNB-75 CNS = test system: SNB-75 CNS
SK-OV-3 ovarian = test system: SK-OV-3 ovarian
SK-MEL-2 melanoma = test system: SK-MEL-2 melanoma
HCT-116 colon = test system: HCT-116 colon
UACC-62 melanoma = test system: UACC-62 melanoma
IGROV1 ovarian = test system: IGROV1 ovarian
DMS 114 small cell lung = test system: DMS 114 small cell lung
SF-539 CNS = test system: SF-539 CNS
UO-31 renal = test system: UO-31 renal
OVCAR-5 ovarian = test system: OVCAR-5 ovarian
NCI-H226 lung = test system: NCI-H226 lung
RXF-631 renal = test system: RXF-631 renal
OVCAR-4 ovarian = test system: OVCAR-4 ovarian
SW-620 colon = test system: SW-620 colon
NCI-H23 lung = test system: NCI-H23 lung
MOLT-4 leukemia = test system: MOLT-4 leukemia
XF 498 CNS = test system: XF 498 CNS
UACC-257 melanoma = test system: UACC-257 melanoma
HCT-15 colon = test system: HCT-15 colon
NCI-H460 lung = test system: NCI-H460 lung
RXF 393 renal = test system: RXF 393 renal
SK-MEL-5 melanoma = test system: SK-MEL-5 melanoma
HL-60(TB) leukemia = test system: HL-60(TB) leukemia
HOP-62 NSCLC = test system: HOP-62 NSCLC
ACHN renal = test system: ACHN renal
DLD-1 colon = test system: DLD-1 colon
SNB-19 CNS = test system: SNB-19 CNS
M14 melanoma = test system: M14 melanoma
COLO 205 colon = test system: COLO 205 colon
LXFL 529 NSCLC = test system: LXFL 529 NSCLC
TK-10 renal = test system: TK-10 renal
CAKI-1 renal = test system: CAKI-1 renal
M19-MEL melanoma = test system: M19-MEL melanoma
K-562 leukemia = test system: K-562 leukemia
MALME-3M melanoma = test system: MALME-3M melanoma
SNB-78 CNS = test system: SNB-78 CNS
U251 CNS = test system: U251 CNS
CCRF-CEM leukemia = test system: CCRF-CEM leukemia
SF-268 CNS = test system: SF-268 CNS
NCI-H522 lung = test system: NCI-H522 lung
HCC-2998 colon = test system: HCC-2998 colon
OVCAR-3 ovarian = test system: OVCAR-3 ovarian
KM20L2 colon = test system: KM20L2 colon
SR leukemia = test system: SR leukemia
A498 renal = test system: A498 renal
SN12C renal = test system: SN12C renal
DMS 273 small cell lung = test system: DMS 273 small cell lung
SF-295 CNS = test system: SF-295 CNS
HOP-92 NSCLC = test system: HOP-92 NSCLC
A549 NSCLC = test system: A549 NSCLC
OVCAR-8 ovarian = test system: OVCAR-8 ovarian
786-0 renal = test system: 786-0 renal
HT29 colon = test system: HT29 colon
EKVX NSCLC = test system: EKVX NSCLC
RPMI-8226 leukemia = test system: RPMI-8226 leukemia
HOP-18 NSCLC = test system: HOP-18 NSCLC
SK-MEL-28 melanoma = test system: SK-MEL-28 melanoma

With `Cc1c(C2Cc3ccccc3N2C(=O)/C=C\C(=O)O)c2ccccc2n1C` (centres undefined) the TGI (KM12 colon) was 35.6 µM, the TGI (LOX IMVI melanoma) was 32.6 µM and the TGI (SNB-75 CNS) was 74.2 µM. For the same molecule, the TGI (SK-OV-3 ovarian) was 48.5 µM, the TGI (SK-MEL-2 melanoma) was 32 µM and the TGI (HCT-116 colon) was 94.1 µM. It also gave a TGI (UACC-62 melanoma) of 35.8 µM, a TGI (IGROV1 ovarian) of 70.7 µM and a TGI (DMS 114 small cell lung) of 40 µM. The TGI (SF-539 CNS) was 42.6 µM, the TGI (UO-31 renal) was greater than 100 µM and the TGI (OVCAR-5 ovarian) was greater than 100 µM. It also gave a TGI (NCI-H226 lung) of 57.6 µM, a TGI (RXF-631 renal) greater than 100 µM and a TGI (OVCAR-4 ovarian) greater than 100 µM. It also gave a TGI (SW-620 colon) of 41.5 µM, a TGI (NCI-H23 lung) of 62.9 µM and a TGI (MOLT-4 leukemia) of 93.3 µM. The TGI (XF 498 CNS) was 31.5 µM, the TGI (UACC-257 melanoma) was 36.3 µM and the TGI (HCT-15 colon) was greater than 100 µM. For the same molecule, the TGI (NCI-H460 lung) was greater than 100 µM, the TGI (RXF 393 renal) was 33.1 µM and the TGI (SK-MEL-5 melanoma) was 41.5 µM. For the same molecule, the TGI (HL-60(TB) leukemia) was 51.6 µM, the TGI (HOP-62 NSCLC) was 57.1 µM and the TGI (ACHN renal) was greater than 100 µM. For the same molecule, the TGI (DLD-1 colon) was greater than 100 µM, the TGI (SNB-19 CNS) was 37.2 µM and the TGI (M14 melanoma) was 76.2 µM. It also gave a TGI (COLO 205 colon) of 32.1 µM, a TGI (LXFL 529 NSCLC) of 34.8 µM and a TGI (TK-10 renal) of 44.6 µM. For the same molecule, the TGI (CAKI-1 renal) was 78.7 µM, the TGI (M19-MEL melanoma) was 52.3 µM and the TGI (K-562 leukemia) was greater than 100 µM. It also gave a TGI (MALME-3M melanoma) greater than 100 µM, a TGI (SNB-78 CNS) greater than 100 µM and a TGI (U251 CNS) of 40.6 µM. The TGI (CCRF-CEM leukemia) was greater than 100 µM, the TGI (SF-268 CNS) was 35.9 µM and the TGI (NCI-H522 lung) was 46.4 µM. It also gave a TGI (HCC-2998 colon) of 39.5 µM, a TGI (OVCAR-3 ovarian) of 43.1 µM and a TGI (KM20L2 colon) of 58.3 µM. The TGI (SR leukemia) was 85.8 µM, the TGI (A498 renal) was 66.3 µM and the TGI (SN12C renal) was 45.6 µM. For the same molecule, the TGI (DMS 273 small cell lung) was greater than 100 µM, the TGI (SF-295 CNS) was 50.4 µM and the TGI (HOP-92 NSCLC) was 36.3 µM. For the same molecule, the TGI (A549 NSCLC) was greater than 100 µM, the TGI (OVCAR-8 ovarian) was 43.6 µM and the TGI (786-0 renal) was 49.3 µM. It also gave a TGI (HT29 colon) greater than 100 µM and a TGI (EKVX NSCLC) of 72.9 µM.
With `Fc1ccc(F)c(C2SCc3nc4ccccc4n32)c1` (centres undefined) the TGI (KM12 colon) was greater than 100 µM, the TGI (LOX IMVI melanoma) was greater than 100 µM and the TGI (SNB-75 CNS) was greater than 100 µM. It also gave a TGI (SK-OV-3 ovarian) greater than 100 µM, a TGI (HCT-116 colon) greater than 100 µM and a TGI (UACC-62 melanoma) greater than 100 µM. For the same molecule, the TGI (IGROV1 ovarian) was greater than 100 µM, the TGI (DMS 114 small cell lung) was 68.8 µM and the TGI (SF-539 CNS) was greater than 100 µM. For the same molecule, the TGI (UO-31 renal) was greater than 100 µM, the TGI (OVCAR-5 ovarian) was greater than 100 µM and the TGI (NCI-H226 lung) was greater than 100 µM. For the same molecule, the TGI (RPMI-8226 leukemia) was greater than 100 µM, the TGI (OVCAR-4 ovarian) was greater than 100 µM and the TGI (SW-620 colon) was greater than 100 µM. The TGI (NCI-H23 lung) was greater than 100 µM, the TGI (HOP-18 NSCLC) was greater than 100 µM and the TGI (MOLT-4 leukemia) was 91.6 µM. It also gave a TGI (UACC-257 melanoma) greater than 100 µM, a TGI (HCT-15 colon) greater than 100 µM and a TGI (NCI-H460 lung) greater than 100 µM. The TGI (RXF 393 renal) was greater than 100 µM, the TGI (SK-MEL-5 melanoma) was 46.6 µM and the TGI (HL-60(TB) leukemia) was 53.9 µM. It also gave a TGI (HOP-62 NSCLC) greater than 100 µM, a TGI (ACHN renal) greater than 100 µM and a TGI (DLD-1 colon) greater than 100 µM. It also gave a TGI (SNB-19 CNS) greater than 100 µM, a TGI (M14 melanoma) greater than 100 µM and a TGI (COLO 205 colon) greater than 100 µM. For the same molecule, the TGI (LXFL 529 NSCLC) was greater than 100 µM, the TGI (TK-10 renal) was greater than 100 µM and the TGI (CAKI-1 renal) was greater than 100 µM. It also gave a TGI (M19-MEL melanoma) greater than 100 µM, a TGI (K-562 leukemia) greater than 100 µM and a TGI (MALME-3M melanoma) greater than 100 µM. The TGI (SNB-78 CNS) was greater than 100 µM, the TGI (U251 CNS) was greater than 100 µM and the TGI (CCRF-CEM leukemia) was greater than 100 µM. The TGI (SF-268 CNS) was greater than 100 µM, the TGI (NCI-H522 lung) was greater than 100 µM and the TGI (HCC-2998 colon) was greater than 100 µM. For the same molecule, the TGI (OVCAR-3 ovarian) was greater than 100 µM, the TGI (KM20L2 colon) was greater than 100 µM and the TGI (SR leukemia) was greater than 100 µM. For the same molecule, the TGI (A498 renal) was greater than 100 µM, the TGI (SN12C renal) was greater than 100 µM and the TGI (DMS 273 small cell lung) was 64.3 µM. It also gave a TGI (SF-295 CNS) greater than 100 µM, a TGI (HOP-92 NSCLC) greater than 100 µM and a TGI (A549 NSCLC) greater than 100 µM. For the same molecule, the TGI (OVCAR-8 ovarian) was greater than 100 µM, the TGI (786-0 renal) was greater than 100 µM and the TGI (HT29 colon) was greater than 100 µM. The TGI (EKVX NSCLC) was greater than 100 µM.
`NC(=O)c1csc(CCCCCCc2nc(C(N)=O)cs2)n1` showed a TGI (KM12 colon) greater than 100 µM, a TGI (LOX IMVI melanoma) greater than 100 µM and a TGI (SNB-75 CNS) greater than 100 µM. For the same molecule, the TGI (SK-OV-3 ovarian) was greater than 100 µM, the TGI (SK-MEL-2 melanoma) was greater than 100 µM and the TGI (HCT-116 colon) was greater than 100 µM. The TGI (UACC-62 melanoma) was greater than 100 µM, the TGI (IGROV1 ovarian) was greater than 100 µM and the TGI (DMS 114 small cell lung) was greater than 100 µM. The TGI (SF-539 CNS) was greater than 100 µM, the TGI (UO-31 renal) was greater than 100 µM and the TGI (OVCAR-5 ovarian) was greater than 100 µM. It also gave a TGI (NCI-H226 lung) greater than 100 µM, a TGI (RXF-631 renal) greater than 100 µM and a TGI (RPMI-8226 leukemia) greater than 71.4 µM. It also gave a TGI (OVCAR-4 ovarian) greater than 100 µM, a TGI (SW-620 colon) greater than 60.7 µM and a TGI (NCI-H23 lung) greater than 100 µM. The TGI (SK-MEL-28 melanoma) was greater than 100 µM, the TGI (HOP-18 NSCLC) was greater than 100 µM and the TGI (MOLT-4 leukemia) was greater than 100 µM. For the same molecule, the TGI (UACC-257 melanoma) was greater than 100 µM, the TGI (HCT-15 colon) was greater than 100 µM and the TGI (NCI-H460 lung) was greater than 100 µM. The TGI (RXF 393 renal) was greater than 100 µM, the TGI (SK-MEL-5 melanoma) was greater than 100 µM and the TGI (HL-60(TB) leukemia) was greater than 100 µM. For the same molecule, the TGI (HOP-62 NSCLC) was greater than 100 µM, the TGI (ACHN renal) was greater than 100 µM and the TGI (DLD-1 colon) was greater than 100 µM. For the same molecule, the TGI (SNB-19 CNS) was greater than 100 µM, the TGI (M14 melanoma) was greater than 100 µM and the TGI (COLO 205 colon) was greater than 100 µM. The TGI (LXFL 529 NSCLC) was greater than 100 µM, the TGI (TK-10 renal) was greater than 100 µM and the TGI (CAKI-1 renal) was greater than 100 µM. It also gave a TGI (M19-MEL melanoma) of 49.3 µM, a TGI (K-562 leukemia) greater than 62.8 µM and a TGI (MALME-3M melanoma) greater than 100 µM. It also gave a TGI (SNB-78 CNS) greater than 100 µM, a TGI (U251 CNS) greater than 65.1 µM and a TGI (CCRF-CEM leukemia) greater than 62.4 µM. It also gave a TGI (SF-268 CNS) greater than 100 µM, a TGI (NCI-H522 lung) greater than 100 µM and a TGI (HCC-2998 colon) greater than 100 µM. The TGI (OVCAR-3 ovarian) was greater than 100 µM, the TGI (KM20L2 colon) was greater than 100 µM and the TGI (SR leukemia) was greater than 100 µM. For the same molecule, the TGI (A498 renal) was greater than 100 µM, the TGI (SN12C renal) was greater than 100 µM and the TGI (DMS 273 small cell lung) was greater than 100 µM. The TGI (SF-295 CNS) was greater than 100 µM, the TGI (HOP-92 NSCLC) was greater than 100 µM and the TGI (A549 NSCLC) was greater than 100 µM. For the same molecule, the TGI (OVCAR-8 ovarian) was greater than 100 µM, the TGI (786-0 renal) was greater than 73.7 µM and the TGI (HT29 colon) was greater than 59.8 µM. It also gave a TGI (EKVX NSCLC) greater than 100 µM.
